Results on one compound are retold here after patent US20240369535A1, “METHODS AND MATERIALS FOR DETERMINING pGC TARGET DOSAGE” (Mayo Foundation for Medical Education and Research, priority 2021, published 2024).

In experiment [1] the target is T1, human GC-A (Homo sapiens, UniProt P16066).
T1 construct: expressed in transfected cells
T1 sequence (P16066 33-1061): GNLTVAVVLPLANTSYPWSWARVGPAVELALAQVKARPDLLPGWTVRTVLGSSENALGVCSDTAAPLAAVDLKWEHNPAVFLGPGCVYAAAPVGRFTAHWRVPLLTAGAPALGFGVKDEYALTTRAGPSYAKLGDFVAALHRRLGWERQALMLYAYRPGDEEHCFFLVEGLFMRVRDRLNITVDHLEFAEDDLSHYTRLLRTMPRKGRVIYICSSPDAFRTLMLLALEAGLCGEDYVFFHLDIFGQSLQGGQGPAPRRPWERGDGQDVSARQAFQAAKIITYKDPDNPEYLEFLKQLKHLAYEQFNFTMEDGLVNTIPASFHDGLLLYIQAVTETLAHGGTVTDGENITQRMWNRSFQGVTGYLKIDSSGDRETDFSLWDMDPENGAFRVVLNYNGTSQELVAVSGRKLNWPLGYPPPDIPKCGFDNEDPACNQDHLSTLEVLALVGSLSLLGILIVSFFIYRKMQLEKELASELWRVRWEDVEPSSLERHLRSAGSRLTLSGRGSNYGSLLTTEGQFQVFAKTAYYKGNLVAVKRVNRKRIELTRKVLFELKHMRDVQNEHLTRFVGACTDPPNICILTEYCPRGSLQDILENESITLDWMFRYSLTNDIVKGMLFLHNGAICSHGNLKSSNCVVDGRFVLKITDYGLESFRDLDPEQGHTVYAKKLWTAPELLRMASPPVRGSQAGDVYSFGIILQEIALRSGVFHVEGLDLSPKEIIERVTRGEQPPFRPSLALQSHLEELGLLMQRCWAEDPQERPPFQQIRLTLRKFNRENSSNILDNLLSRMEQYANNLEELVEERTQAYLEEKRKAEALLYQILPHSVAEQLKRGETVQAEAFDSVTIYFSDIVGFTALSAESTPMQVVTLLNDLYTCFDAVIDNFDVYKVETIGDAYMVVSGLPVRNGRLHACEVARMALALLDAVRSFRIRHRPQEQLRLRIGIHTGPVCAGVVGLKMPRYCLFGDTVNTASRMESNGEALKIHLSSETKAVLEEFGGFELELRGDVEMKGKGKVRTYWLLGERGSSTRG
In words: Ex vivo MCUF-651 therapeutic potency assay with human plasma (Example 2), HEK293 overexpressing human GC-A. The class given is cell-based. On the procedure: Ex Vivo MCUF-651 Therapeutic Potency Assay with Human Plasma from Normal Subjects and Patients with Hypertension and Heart Failure: Stored human plasma samples from normal subjects and patients with HT and HF were utilized. The details of the recruitment of these participants were as described elsewhere (Reginauld et al., supra; and Ferrario et al., Hypertension 77:882-890, 2021). […] HEK293 overexpressing human GC-A were cultured and grown as described above. Cells were grown in 48-well plates to 80-90% confluence. On the day of the experiment, cells were pre-incubated with MCUF-651 at doses of 1, 5, or 10 μM or with vehicle (Veh) in 250 μL treatment buffer (as described above) for 5 minutes at 37° C. 25 μL of human plasma was then added and incubated for additional 10 minutes. Cells were then washed with PBS once and lysed with 0.1 M HCl, and intracellular cGMP levels were measured in the lysate using a commercial cGMP ELISA kit (Enzo Life Sciences, Farmingdale, NY) as instructed by the manufacturer.

Experiment [2] has as its target T2, human pGC-A (Homo sapiens, UniProt P16066).
T2 construct: expressed in transfected cells
T2 sequence (P16066 33-1061): T1 sequence (P16066 33-1061)
In words: MCUF-651/NP/pGC-A/cGMP potency assay (Example 5), HEK293 cells overexpressing human pGC-A. Format: cell-based. The following applies: for cGMP potency: particularly at 5 and 10 μM. Here is the method:
In vitro Cell Culture: HEK 293 cells were stably transfected with human pGC-A or pGC-B using LIPOFECTAMINE™ (Invitrogen, Grand Island, NY) (Chen et al. 2020, supra). Transfected cells (HEK/GC-A or (HEK/GC-B) were maintained in DMEM supplemented with 10% FBS and 250 μg/ml G418. Cells in 48-well plates were grown to 80-90% confluency and then incubated in Hanks Balanced Salt Solution (HBSS, Invitrogen) containing 20 mM HEPES, 0.1% BSA, and 0.5 mM 3-isobutyl-1-methylxanthine (IBMX, Sigma).
MCUF-651/NP/pGC-A/cGMP Potency Assay: Human plasma samples from patients with HT (N=6), ADHF (N=6), and CKD (N=5) were utilized. The details of the recruitment of participants are described above. Stably transfected HEK293 cells engineered to overexpress human pGC-A were cultured (as described above) and grown in 48-well plates to 80-90% confluence. On the day of the experiment, human plasma was diluted 10× with HBSS. 250 μl of diluted plasma was added together with vehicle (DSMO) or the MCUF-651 small molecule pGC-A positive allosteric modulator at doses of 1, 5, or 10 μM to the HEK/pGC-A cells and incubated for 10 minutes at 37° C. Cells were then washed with PBS once and lysed with 0.1 M HCl, and intracellular cGMP levels were measured in the lysate using a commercial cGMP ELISA kit (Enzo Life Sciences, Farmingdale, NY) as instructed by the manufacturer.

For `CN(C)CCN1CCCC(C(=O)Nc2nc3c(F)cc(F)cc3s2)C1` (stereo not shown) [MCUF-651], the “generation of cGMP levels” value in experiment [1] (1, 5 or 10 μM, plasma from normal subjects, hypertensive and HF patients (all three cohorts)) is reported as “potentiated”. For the same compound, the “cGMP potency compared between cohorts” value in experiment [1] (HF plasma, highest circulating ANP and BNP) is “greatest cGMP potency”. The cGMP potency entry in experiment [2] (ADHF plasma with higher circulating ANP and BNP) is “higher cGMP potency”; in experiment [2] (ADHF plasma with lower circulating ANP and BNP) it was “lower cGMP potency”. In addition, the cGMP levels result is “modestly potentiated” in experiment [2] (ADHF plasma, dose 1 μM); “markedly potentiated” in experiment [2] (ADHF plasma, dose 5 μM); “markedly potentiated” in experiment [2] (ADHF plasma, dose 10 μM); “no response” in experiment [2] (CKD plasma, dose 1 μM); “minimally potentiated” in experiment [2] (CKD plasma, dose 5 μM); “minimally potentiated” in experiment [2] (CKD plasma, dose 10 μM). Further, the cGMP levels result in experiment [2] (HT plasma, dose 1 μM) is on record as “modestly potentiated”; in experiment [2] (HT plasma, dose 5 μM) it was “markedly potentiated”; in experiment [2] (HT plasma, dose 10 μM) it was “markedly potentiated”.
